The source of these data is patent publication US11981740B2, “BAFF-R antibodies and uses thereof” (CITY OF HOPE, priority 2016, dated 2024).

In data set [1] the test system is SP49 cells. Nature of the data set: Ibrutinib sensitivity of parental SP49 cells. The data set is classed as cell-based. The source says:
(§1) Animals, cell lines, and primary human tumor samples. BALB/c mice for antibody development and NOD scid gamma (NSG) breeding pairs were purchased from The Jackson Laboratory (Bar Harbor, ME). The NSG breeding colony was maintained by the Animal Resource Center at City of Hope. Mice were housed in a pathogen-free animal facility according to institutional guidelines. All animal studies were approved by the Institutional Animal Care and Use Committee (IACUC: 15020). JeKo-1, SU-DHL-6, Raji, U266 and RL were purchased from ATCC (Manassas, VA). Z-138 line was provided by Dr. Michael Wang (MD Anderson Cancer Center). Ibrutinib-resistant SP49-IR line was developed and provided by Dr. Jianguo Tao (University of South Florida). Ibrutinib-resistant SP49 cell lines (SP49-IR) were established by treating cells with escalating doses of ibrutinib. IC50 was 5 nM for parental SP49 compared to >100 nM for SP49-IR. At 100 nM ibrutinib ˜5% of SP49 cells were viable compared with >90% of SP49-IR cells. Human NK-92 176V cells were obtained from Conkwest Inc. (San Diego, CA). For human blood and tumor samples, non-cultured, primary human lymphomas were obtained as cryopreserved, viable single cell suspensions in 10% DMSO from the Lymphoma Satellite Tissue Bank at MD Anderson Cancer Center under an Institutional Review Board approved protocol (IRB: 2005-0656). […]

The subject of data set [2] is SP49-IR cells. In words: Ibrutinib sensitivity of ibrutinib-resistant SP49-IR cells. The data set is classed as cell-based.
Source text: as §1

The subject of data set [3] is RS4; 11 (acute lymphoblastic leukemia, ALL). In words: In vivo RS4;11 ALL xenograft, bioluminescence imaging. To be noted: RS4;11 challenged NSG mice. The source says: FIG. 4A is a schematic showing treatment schedule following Day 0 tumor challenge with minimum lethal dose of tumors. Treatments were given by IV tail vein injections. FIGS. 4B and 4C are images showing chimeric antibodies targeting human BAFF-R elicited in vivo therapeutic effects against B-cell tumors. Bioluminescence images of mice challenged with luciferase-expressing tumors: JeKo-1 (MCL) (FIG. 4B) or RS4; 11 (ALL) (FIG. 4C). Experimental groups received treatment of chimeric BAFF-R mAbs (C55 or C90, as indicated). Control group mice received PBS, NK cells alone, or rituximab on the same schedule. Data are representative of three independent experiments.
(§2) In vivo studies. For tumor models, stable, luciferase-expressing tumors lines were established for bioluminescent imaging in mouse models. Briefly, a luciferase gene was introduced into tumor lines by a lentivirus gene delivery system (pLenti7.3/V5-DEST Gateway Vector Kit, Life Technologies, Carlsbad, CA). The minimum lethal dose per mouse was determined for each tumor cell line by dose titration. Tumor cells were injected intravenously (IV) and mice were monitored by in vivo bioluminescence imaging for minimum tumor dose to ensure engraftment. Minimum lethal tumor doses were: 1×10^6 JeKo-1, 5×10^5 RS4; 11, 5×10^5 JeKo-1-CD20-KO, or 2.5×10^4 Z-138 cells. […]

The test system of data set [4] is JeKo-1-CD20-KO clone 25. In words: ADCC on rituximab-resistant JeKo-1-CD20-KO. To be noted: E:T=20:1. It counts as cell-based. The protocol:
FIGS. 5A, 5B and 5C are images or graphs showing chimeric BAFF-R antibodies induce ADCC on drug resistant lymphoma models in vitro. FIG. 5A is a scatterplot of FACS analysis showing CD20 binding on JeKo-1 cells following CRISPR/HDR knock-out of CD20 gene. CD20 expression on selected CD20−/−clone #25 compared to WT JeKo-1. ADCC effects measured by chromium-51 release after incubation with C55, C90, or rituximab and effectors NK cells (E:T=20:1). Percentage of cell specific lysis of target cells: rituximab-resistant JeKo-1-CD20-KO (FIG. 5B) and ibrutinib-resistant Z-138 and SP49-IR (FIG. 5C). All data are representative of two or more identical experiments. Data are shown as the mean±s.d. of triplicate samples. *P<0.05 compared with NK cells by two-tailed Student's t-test.
Cytotoxicity assays. Target cells (L cells, human tumor lines, primary patient samples) were labeled with chromium-51 (51Cr, Perkin Elmer, Waltham, MA) for a 51Cr release assay. Briefly, antibodies and effectors (NK cells or complement serum standard [Sigma Aldrich, St. Louis, MO]), were added to labeled target cells and incubated up to 18 hours. NK cells were enriched from PBMC (NK cell enrichment kit, Stemcell Technologies, Vancouver, Canada). 51Cr released into supernatant was detected with a Wizard Automatic Gamma Counter (Perkin Elmer).
Generation of JeKo-1-CD20-KO. […]

The subject of data set [5] is JeKo-1-CD20-KO tumor cells. In words: In vivo JeKo-1-CD20-KO xenograft. Also on record: species or system NSG mice. To be noted: Day 20.
Source text: FIGS. 6A and 6B are images and FIG. 6C are graphs showing chimeric antibodies targeting human BAFF-R elicited in vivo therapeutic effects against drug resistant B-cell tumors. Bioluminescence images of mice challenged with luciferase-expressing tumors JeKo-1-CD20-KO cells (FIG. 6A) or ibrutinib-resistant Z-138 cells (FIG. 6B) followed by antibody treatments as in FIG. 4. Control group mice received PBS, NK cells alone, or rituximab on the same schedule. […] Tumor free rate and survival differences between experimental and all control groups were analyzed by log-rank test (**P<0.001). Data are representative of three independent experiments.
as §2

Data set [6] has as its system JeKo-1, Z138, and RS4 lines. Nature of the data set: ADCC chromium release of humanized C90-4 and C90-5, dose response. The data set is classed as cell-based. To be noted: RS4 acute lymphoblastic lymphoma. The procedure:
FIGS. 21A and 21B are graphs showing humanized antibodies C90-4 and C90-5 analyzed for their specific cytotoxicity of various lymphoma lines. For FIG. 21A, JeKo-1, Z138, and RS4 were subjected to a chromium release assay with humanized antibodies C90-4 and C90-5. Antibodies were administered to the cell lines at concentrations between 0 to 5 μg/mL and incubated for 6 hours with NK cells at an E:T ratio of 20:1. The cell supernatants were analyzed for their chromium content. For FIG. 21B, LY-10, MEC-2, RL, and Raji lymphoma lines were subjected to a chromium release assay with humanized antibodies C90-4 and C90-5. Antibodies were administered to the cell lines at 5 μg/mL and incubated for 6 hours with NK cells at an E:T ratio of 20:1. The cell supernatants were analyzed for their chromium content.
The two variants were further assessed in their ability to initiate ADCC. The antibodies were administered in varying concentration to JeKo-1, Z138, and RS4 lines after a period of chromium uptake. The cells and antibodies were incubated with effector NK cells. The supernatant was analyzed 6 hours post treatment (FIG. 21A).

The term IC50 denotes the concentration at which inhibition is half-maximal. In the case of `C=CC(=O)N1CCC[C@@H](n2nc(-c3ccc(Oc4ccccc4)cc3)c3c(N)ncnc32)C1` [ibrutinib], the viability at 0.1 µM was ~5% in data set [1] (At 100 nM ibrutinib, SP49, read-out: viable cells) and > 90% in data set [2] (At 100 nM ibrutinib, read-out: viable cells). In addition, the IC50 in data set [1] (parental SP49) was 5 nM; in data set [2] it was > 100 nM.
Regarding rituximab [reference compound], in data set [3], the tumor growth entry was “no inhibition”. Further, the “sensitivity to antibody-mediated cytotoxicity” value in data set [4] is given as “insensitive”. Also, the “tumor burden by bioluminescent imaging” value in data set [5] is “substantial tumor burden”. In data set [6], the ADCC activity result is on record as “not active”.
